Experimental data published in patent US8436036B2, “Diaryl ethers” (Janssen R&D Ireland, priority 2009, dated 2013).

Legend:
[1] = Cytotoxicity (Huh-7); format: cell-based; conditions: human, Huh-7 cells
Text: The in vitro antiviral activity against HCV of the compounds of formula I can be tested in a cellular HCV replicon system based on Lohmann et al. (1999) Science 285:110-113, with the further modifications described by Krieger et al. (2001) Journal of Virology 75: 4614-4624 (incorporated herein by reference), which is further exemplified in the examples section. This model, while not a complete infection model for HCV, is widely accepted as the most robust and efficient model of autonomous HCV RNA replication currently available. It will be appreciated that it is important to distinguish between compounds that specifically interfere with HCV functions from those that exert cytotoxic or cytostatic effects in the HCV replicon model, and as a consequence cause a decrease in HCV RNA or linked reporter enzyme concentration. Assays are known in the field for the evaluation of cellular cytotoxicity based for example on the activity of mitochondrial enzymes using fluorogenic redox dyes such as resazurin. Furthermore, cellular counter screens exist for the evaluation of non-selective inhibition of linked reporter gene activity, such as firefly luciferase. Appropriate cell types can be equipped by stable transfection with a luciferase reporter gene whose expression is dependent on a constitutively active gene promoter, and such cells can be used as a counter-screen to eliminate non-selective inhibitors.

[2] = tested on: HCV replicon; experiment: HCV replicon assay (Huh-Luc cells, luciferase read-out); format: cell-based, HCV type Ib; conditions: Hepatitis C virus, 72 h, three days incubation, luciferase activity
Text: The compounds of formula (I) were examined for inhibitory activity in the HCV replicon. This cellular assay is based on a bicistronic expression construct, as described by Lohmann et al. (1999) Science vol. 285 pp. 110-113 with modifications described by Krieger et al. (2001) Journal of Virology 75: 4614-4624, in a multi-target screening strategy.
In essence, the method was as follows:
The assay utilized the stably transfected cell line Huh-7 luc/neo (hereafter referred to as Huh-Luc). This cell line harbors an RNA encoding a bicistronic expression construct comprising the wild type NS3-NS5B regions of HCV type Ib translated from an Internal Ribosome Entry Site (IRES) from encephalomyocarditis virus (EMCV), preceded by a reporter portion (FfL-luciferase), and a selectable marker portion (neo^R, neomycine phosphotransferase). The construct is flanked by 5′ and 3′ NTRs (non-translated regions) from HCV type Ib. Continued culture of the replicon cells in the presence of G418 (neo^R) is dependent on the replication of the HCV RNA. The stably transfected replicon cells that express HCV RNA, which replicates autonomously and to high levels, encoding inter alia luciferase, were used for screening the antiviral compounds.
The replicon cells were plated in 384 well plates in the presence of the test and control compounds which were added in various concentrations. Following an incubation of three days, HCV replication was measured by assaying luciferase activity (using standard luciferase assay substrates and reagents and a Perkin Elmer ViewLux™ ultraHTS microplate imager). Replicon cells in the control cultures have high luciferase expression in the absence of any inhibitor. The inhibitory activity of the compound on luciferase activity was monitored on the Huh-Luc cells, enabling a dose-response curve for each test compound. EC50 values were then calculated, which represent the amount of compound required to decrease the level of detected luciferase activity by 50%, or more specifically, to reduce the ability of the genetically linked HCV replicon RNA to replicate.

| SMILES | CC50 [1] | EC50 [2] |
| --- | --- | --- |
| COC(=O)N[C@H](C(=O)N1CCC[C@H]1c1nc(-c2ccc(Oc3ccc(OC)c(-c4c[nH]c([C@@H]5CCCN5C(=O)[C@@H](NC(=O)OC)C(C)C)n4)c3)cc2)c[nH]1)C(C)C [Example 45] | 1.66 µM | 62.7 nM |
| COC(=O)NC(C(=O)N1CCC[C@H]1c1nc(-c2ccc(Oc3ccc(OC)c(-c4cnc([C@@H]5CCCN5C(=O)C(NC(=O)OC)c5ccccc5)[nH]4)c3)cc2)c[nH]1)c1ccccc1 (stereo partly drawn) [Example 46] | > 98.4 µM | > 980 nM |
| O=C(Cc1ccccc1)N1CCC[C@H]1c1ncc(-c2ccc(Oc3ccc(-c4cnc([C@@H]5CCCN5C(=O)Cc5ccccc5)[nH]4)cc3)cc2)[nH]1 [Example 49] | > 31.5 µM | 1120 nM |
